# From PMC5223195, “Novel long-chain compounds with both immunomodulatory and MenA inhibitory activities against Staphylococcus aureus and its biofilm” (Scientific Reports, 2017)
# “Also recorded” adds a separate entry of the source. Read-outs that look alike come from different tables or passages of the source.
# Columns and labels:
# MRSA strains = assay: MIC against MRSA strains (summary); type: cell-based, Staphylococcus aureus; details: range over MRSA strains
# Method: (§1) 96-well plates were seeded with 5 × 10^5 CFU/mL in a volume of 100 μL of tryptic soy broth (TSB) per well for Staphylococcus aureus assays. Compounds were dissolved in DMSO and serially diluted as 1:2 dilutions to give the final concentration ranging from 0.25 to 128 μg/mL per well. […] Plates were incubated at 37 °C for 18–20 hours and MIC was determined by reading OD625. For M.avium and M.abscessus, 7H9 broth media was used for determination of MICs. The final concentration was 5 × 10^5 CFU/mL in each well. The plate was incubated at 37 °C for 7–8 days and MICs were determined using a Tecan microplate reader (OD625) and resazurin reduction assay.
# Mycobacterium abscessus = assay: MIC against Mycobacterium abscessus; type: cell-based; details: Mycobacteroides abscessus, 7H9 broth, 7–8 days
# Method: as §1
# Mycobacterium avium = assay: MIC against Mycobacterium avium; type: cell-based; details: 7H9 broth, 7–8 days
# Method: as §1
# MRSA USA400 = assay: MIC against MRSA USA400; type: cell-based, Staphylococcus aureus; details: Staphylococcus aureus; TSB, 37 °C, 18–20 hours; read-out: MIC, Staphylococcus aureus isolate USA400
# Method: as §1
# IL-6 = IL-6 release from THP-1 macrophages; type: cell-based, human; details: concentration equal to MIC, 24 h, 37 °C
# Method: (§2) THP-1 cells were differentiated into macrophages by treatment with PMA (7.5 ng/mL). Levels of the human cytokines (GM-CSF, IFN-γ, IL-1β, IL-2, IL-4, IL-5, IL-6, IL-8, IL-10, TNF-α) released from THP-1 macrophages were determined using a multiplex kit from Life Technologies according to the manufacturer’s instructions. In brief, the 96 well filter plate was pre-wetted, and then 25 μL of the diluted bead suspension was added to each well and washed twice. 100 μL of samples and standards were added to each well. The plate was incubated at room temperature for 2 h on a shaker. Following washing, biotinylated detection antibody was added and incubated for 1 h. After washing, streptavidin-RPE was added to each well and incubated for 0.5 h. The plate was again washed, resuspended in 100 μL of the washing buffer, and read on the Luminex xMAP™ system (Bio-Rad, AtheNA multi-Lyte™, USA). All samples were run in triplicate and standards were run in duplicate.
# MRSA USA800 = assay: MIC against MRSA USA800; type: cell-based, Staphylococcus aureus; details: Staphylococcus aureus; TSB, 37 °C, 18–20 hours; read-out: MIC, Staphylococcus aureus isolate USA800
# Method: as §1
# MRSA USA700 = assay: MIC against MRSA USA700; type: cell-based, Staphylococcus aureus; details: TSB, 37 °C, 18–20 hours
# Method: as §1
# MRSA USA100 = assay: MIC against MRSA USA100; type: cell-based, Staphylococcus aureus; details: Staphylococcus aureus; TSB, 37 °C, 18–20 hours; read-out: MIC, Staphylococcus aureus isolate USA100
# Method: as §1
# MRSA USA 700 = assay: Menaquinone (MK-4) rescue, resazurin reduction assay, USA 700; type: cell-based; details: Staphylococcus aureus, read-out: MIC in the presence of MK-4
# Method: Resazurin reduction assay was performed in 96-well plate. MRSA was cultured in TSB until OD625 reached 0.4~0.5 and diluted and plated in 96-well plate. […] The plate was incubated overnight at 37 °C followed by 20 μL of resazurin (0.15 mg/mL) was added to each well. The plate was incubated for 2–4 h and fluorescence was measured at 560 nm excitation/590 nm emission.
# IL-1β = IL-1β release from THP-1 macrophages; type: cell-based, human; details: concentration equal to MIC, 24 h, 37 °C
# Method: as §2
# MRSA USA500 = assay: MIC against MRSA USA500; type: cell-based, Staphylococcus aureus; details: Staphylococcus aureus; TSB, 37 °C, 18–20 hours; read-out: MIC, Staphylococcus aureus isolate USA500
# Method: as §1
# MRSA USA200 = assay: MIC against MRSA USA200; type: cell-based, Staphylococcus aureus; details: Staphylococcus aureus; TSB, 37 °C, 18–20 hours; read-out: MIC, Staphylococcus aureus isolate USA200
# Method: as §1
# Pseudomonas aeruginosa = assay: MIC against Pseudomonas aeruginosa; type: cell-based; details: read-out: MIC, PA
# [1] = system: Methicillin susceptible Staphylococcus aureus; assay: MIC against MSSA; type: cell-based; details: MSSA
# Method: as §1
# MRSA (USA 700) = assay: Activity against extracellular MRSA in the presence of human MDMs; type: cell-based, Staphylococcus aureus; details: extracellular MRSA USA700, MIC and MIC/4, 24 h
# Method: Human monocyte-derived macrophages (MDM) were cultured at a concentration of 1 × 10^6 cells/mL/well in a 24 well plate. MRSA (USA 700) was cultured in TSB (10 mL) until OD625 reached 0.4~0.5 and then centrifuged at 14,000 rpm for 10 min. The pellets were resuspended in 10 mL of DMEM supplemented with 10% human serum (no antibiotics). The bacteria medium was diluted with DMEM containing an inhibitor to obtain 1 × 10^6 CFU/mL and added to human MDMs (MOI = 1) in a 24-well plate. After 24 hour infection at 37 °C, the supernatants were serially diluted for CFU determination (TSA plates).
# MRSA USA300 = assay: MIC against MRSA USA300; type: cell-based, Staphylococcus aureus; details: Staphylococcus aureus; TSB, 37 °C, 18–20 hours; read-out: MIC, Staphylococcus aureus isolate USA300
# Method: as §1
# TNF-α = TNF-α release from THP-1 macrophages; type: cell-based, human; details: concentration equal to MIC, 24 h, 37 °C
# Method: as §2
# Enterococcus faecalis = assay: MIC against Enterococcus faecalis; type: cell-based; details: read-out: MIC, EF
# MRSA (USA700) biofilms = assay: S. aureus biofilm assay; type: cell-based, Staphylococcus aureus; details: USA700 biofilm, 24 h
# Method: Biofilm assays were performed using a method previously described with modification. A 96 well plate was precoated with 20% human plasma (Sigma) in 0.05 M carbonate buffer, pH 9.6 at 4 °C for 24 h. MRSA was cultured overnight in TSB containing 3% NaCl and 0.5% glucose. The overnight culture was diluted with TSB/NaCl/Glucose media until OD600 reached 0.05. After carefully removing the liquid from the 96 well plate, 200 μL of MRSA dilution was added to each well in triplicate. The plate was incubated at 37 °C for 24 h and carefully washed with PBS twice. MH broth (200 μL) containing a compound was added to each well in triplicate and incubated at 37 °C for 24 h. After washing with PBS twice, the biofilm was scraped in 100 μL of PBS and serially diluted and plated on TSA to determine CFU.
# Gram-positive bacteria = assay: MIC against Gram-positive bacteria (summary); type: cell-based; details: range over all tested Gram-positive bacteria
# Method: as §1
# MRSA (USA200) = assay: Colony morphology / small colony variant formation on TSA; type: cell-based, Staphylococcus aureus
# Method: MRSA was streaked and then incubated on tryptic soy agar (TSA) containing 0, 2, 4, 8 or 16 μg/mL of inhibitor 3a or 4 μg/mL of 7C or 0.025 μg/mL of rifampin at 37 °C for 96 h. MK-4 (100 μg/mL) was supplemented in TSA containing 8 μg/mL of 3a for the rescue experiment.
smiles,measurement,setting,value
COc1ccc2ccc(OCCCCCCCCNCCc3ccc(F)cc3)cc2c1 [3a],MICs against MRSA strains (range),MRSA strains,1 to 8 µg/mL
same,MIC,Mycobacterium abscessus,6 µg/mL
same,MIC,Mycobacterium avium,2 µg/mL
same,MIC,MRSA USA400,4 µg/mL
same,IL-6 released from THP-1 macrophages,IL-6,decreased; also recorded: significantly reduced
same,MIC,MRSA USA800,6 µg/mL
same,MIC,"MRSA USA700; Staphylococcus aureus, read-out: MIC, Staphylococcus aureus isolate USA700",4 µg/mL
same,"MIC, Staphylococcus aureus isolate USA700",MRSA USA700,4 µg/mL
same,MIC,MRSA USA100,4 µg/mL
same,MIC,"MRSA USA 700; USA 700, 0.05 mg/mL MK-4",16 µg/mL
same,MIC,"MRSA USA 700; USA 700, 0.5 mg/mL MK-4",64 µg/mL
same,IL-1β released from THP-1 macrophages,IL-1β,stimulated the release
same,MIC,MRSA USA500,4 µg/mL
same,MIC,MRSA USA200,2 µg/mL
same,MIC,Pseudomonas aeruginosa,> 64 µg/mL
same,MIC,[1],4 µg/mL
same,increase of antibacterial activity compared to activities with MDMs,MRSA (USA 700),1.5 – 3 fold
same,increase of antibacterial activity compared to activities without MDMs,MRSA (USA 700),6–12 fold
same,MIC,MRSA USA300,4 µg/mL
same,TNF-α released from THP-1 macrophages,TNF-α,decreased
same,MIC,Enterococcus faecalis,1 µg/mL
same,fold decrease in MRSA growth from the treated biofilm,MRSA (USA700) biofilms; 0.03 mg/mL,10^4 fold
same,fold decrease in MRSA growth from the treated biofilm,MRSA (USA700) biofilms; 0.5 mg/mL,10^6 fold
same,fold decrease in MRSA growth from the treated biofilm,MRSA (USA700) biofilms; 1 mg/mL,10^7 fold
same,MIC values against all Gram-positive bacteria (range),Gram-positive bacteria,0.5 to 16 µg/mL
same,colonies on MK-4 supplemented agar plate,"MRSA (USA200); USA200, 8 μg/mL inhibitor + MK-4 100 μg/mL",showed wild-type colonies
same,colonies on agar plates,"MRSA (USA200); USA200, more than 2× MIC, after 24 h",No colonies were observed
same,induction of small colony variants (SCV),"MRSA (USA200); USA200 on TSA, 37 °C, up to 96 h (3a 4–16 μg/mL), 72 h (7c, rifampin)",did not induce SCV
